Values of other authors as cited in patent US7700778B2, “Acylated piperidine derivatives as melanocortin-4 receptor agonists” (Merck Sharp & Dohme Corp., priority 2001, dated 2010).

Legend:
[1] = tested on: men
[2] = tested on: males with psychogenic erectile dysfunction
[3] = in vivo, po

| Compound | duration of effect ([1]; after an oral dose) | onset of action ([1]; after an oral dose) | share of men/patients in whom effective (adequate response) ([1]; oral) | duration of action ([2]; in vivo) | time to onset of erection ([2]; in vivo) | response rate ([2]; injected intramuscularly or subcutaneously) | absorption into the systemic circulation [3] |
| --- | --- | --- | --- | --- | --- | --- | --- |
| Cc1ccc(N(CC2=NCCN2)c2cccc(O)c2)cc1 [phentolamine] | 2 h | 5 to 30 min | 35-40% |  |  |  |  |
| Ac-Nle-c[Asp-His-DPhe-Arg-Trp-Lys]-NH2 [MT-II] |  |  |  | approximately 2.5 hours | 10 to 20 min | 75% | not absorbed into the systemic circulation |
